Test results taken from publication PMC4715021, “^177Lu-labelled macrocyclic bisphosphonates for targeting bone metastasis in cancer treatment” (EJNMMI Research, 2016).
“And” between values parts separate entries of the source, which are not always exact repeats. Equal values may be shown once.

Experiments:
[1] = Ex vivo biodistribution of 177Lu-complexes in Wistar rats; details: for Biodistribution of radioactivity, Adipose tissue / Biodistribution of radioactivity, Adrenal gland / Biodistribution of radioactivity, Blood / Biodistribution of radioactivity, Brain / Biodistribution of radioactivity, Femur / Biodistribution of radioactivity, Harderian gland / Biodistribution of radioactivity, Heart / Biodistribution of radioactivity, Kidneys / Biodistribution of radioactivity, Liver / Biodistribution of radioactivity, Lung / Biodistribution of radioactivity, Muscle / Biodistribution of radioactivity, Pancreas / Biodistribution of radioactivity, Spleen / Biodistribution of radioactivity, Testes / Biodistribution of radioactivity, Thymus: i.v.
From the text: (§1) The experiments were realized corresponding to the German animal welfare regulations and institutional guidelines and with the permission of the local animal research committee at the Landesdirektion, Dresden. All experimental procedures are following the guidelines of the European Convention for the Protection of Vertebrate Animals used for Experimental and other Scientific Purposes (ETS No. 123). Male Wistar rats weighing 157.69 ± 17.10 g (mean ± SD, N = 35) were purchased from Unilever (HsdCpb:WU, Harlan Winkelmann, Borchen, Germany). Anesthetization was initiated and maintained by desflurane, and animals were put in the supine position and placed on a heating pad to maintain body temperature. A needle catheter was used for administration of the tracers in the tail vein. A second catheter was introduced into the right femoral artery for the extraction of blood samples for metabolite analysis, which was routinely done during SPECT/CT measurements.
The male Wistar rats received a short-term anesthetization by desflurane inhalation. Mean activities of 2.36 ± 0.27 MBq/kg of the ^177Lu-labelled tracers in isotonic saline were injected in a volume of 0.5 mL in the tail vein, with the following specific details: [^177Lu]citrate: 2.56 ± 0.07 MBq/kg, 128.58 body weight (BW, g), n = 4 (g); [^177Lu]BPAMD: 2.33 ± 0.11 MBq/kg, 159.41 BW (g), n = 4 (g); [^177Lu]BPAPD: 2.58 ± 0.24 MBq/kg, 156.38 BW (g), n = 4 (g); [^177Lu]BPPED: 2.27 ± 0.25 MBq/kg, 153.43 BW (g), n = 4 (g); [^177Lu]NO2AP^BP: 2.52 ± 0.25 MBq/kg, 173.82 BW (g), n = 4 (g); [^177Lu]DOTA(M^BP)2: 1.80 ± 0.10 MBq/kg, 181.64 BW (g), n = 4 (g); [^177Lu]DO2A(P^BP)2: 2.46 ± 0.15 MBq/kg, 150.60 BW (g), n = 4 (g). The compounds [^177Lu]DOTA(M^BP)2, [^177Lu]BPPED, and [^177Lu]BPAMD were further chosen for a biodistribution study after 8 days p.i. A mean activity of 19.0 ± 2.5 MBq/kg was injected. Animals were sacrificed after 5 min, 60 min, and 8 days p.i. Organs of interest were excised rapidly and weighed, and the ^177Lu activity was determined with a Wallac WIZARD automatic gamma counter (PerkinElmer, Germany) and decay corrected. The distribution data are expressed in %ID or are normalized to the BW as standard uptake value (SUV), which was calculated with the formula: SUV = (activity per g tissue)/(injected activity) × BW. The skeleton weight was calculated using the following: skeleton weight = 9.66 + 0.0355 × BW, and the total activities associated with the skeleton were calculated by using the activity concentration in the femur and the total skeleton weight.

[2] = Metabolite analysis and in vivo stability, arterial blood and urine samples; set-up: species or system Wistar rats
From the text: as §1
Arterial blood plasma samples were taken during SPECT/CT examinations after 1, 3, 5, 10, 20, 30, 60, and 120 min. p.i., and the in vivo metabolism of [^177Lu]BPAMD, [^177Lu]BPAPD, [^177Lu]BPPED, [^177Lu]NO2AP^BP, [^177Lu]DOTA(M^BP)2, and [^177Lu]DO2A(P^BP)2 was analyzed. Plasma was separated by centrifugation (3 min, 11,000×g) followed by precipitation of the plasma proteins with ice-cold methanol (1.5 parts per 1 part plasma) and centrifugation (3 min, 11,000×g). The supernatants were analyzed by radio-TLC and HPLC using the abovementioned methods for quality control. Additionally, urine samples were treated in the same way prior radio-TLC and radio-HPLC analysis.

[3] = 5 min p.i., mean of four animals
[4] = 60 min p.i., mean of four animals
[5] = 8 days p.i., mean for five animals

O=C(O)CN1CCN(CC(=O)O)CCN(CC(=O)NC(P(=O)(O)O)P(=O)(O)O)CCN(CC(=O)O)CC1 [[^177Lu]BPAMD, metal not drawn]
Ratio Bone/Adipose tissue ([1]; 5 min p.i.): 8.0 | Ratio Bone/Adrenal gland ([1]; 5 min p.i.): 8.4 | Ratio Bone/Blood ([1]; 5 min p.i.): 3.7 | Ratio Bone/Brain ([1]; 5 min p.i.): 83.9 | Ratio Bone/Harderian gland ([1]; 5 min p.i.): 9.3 | Ratio Bone/Heart ([1]; 5 min p.i.): 9.3 | Ratio Bone/Kidneys ([1]; 5 min p.i.): 0.7 | Ratio Bone/Liver ([1]; 5 min p.i.): 12.9 | Ratio Bone/Lung ([1]; 5 min p.i.): 5.5 | Ratio Bone/Muscle ([1]; 5 min p.i.): 17.7 | Ratio Bone/Pancreas ([1]; 5 min p.i.): 10.8 | Ratio Bone/Spleen ([1]; 5 min p.i.): 9.1 | Ratio Bone/Testes ([1]; 5 min p.i.): 13.4 | Ratio Bone/Thymus ([1]; 5 min p.i.): 11.6 | Biodistribution of radioactivity, Adipose tissue [1, 3]: 0.42 SUV | Biodistribution of radioactivity, Adrenal gland [1, 3]: 0.40 SUV | Biodistribution of radioactivity, Blood [1, 3]: 0.90 SUV | Biodistribution of radioactivity, Brain [1, 3]: 0.04 SUV | Biodistribution of radioactivity, Femur [1, 3]: 3.36 SUV | Biodistribution of radioactivity, Harderian gland [1, 3]: 0.36 SUV | Biodistribution of radioactivity, Heart [1, 3]: 0.36 SUV | Biodistribution of radioactivity, Kidneys [1, 3]: 4.53 SUV | Biodistribution of radioactivity, Liver [1, 3]: 0.26 SUV | Biodistribution of radioactivity, Lung [1, 3]: 0.61 SUV | Biodistribution of radioactivity, Muscle [1, 3]: 0.19 SUV | Biodistribution of radioactivity, Pancreas [1, 3]: 0.31 SUV | Biodistribution of radioactivity, Spleen [1, 3]: 0.37 SUV | Biodistribution of radioactivity, Testes [1, 3]: 0.25 SUV | Biodistribution of radioactivity, Thymus [1, 3]: 0.29 SUV | Ratio Bone/Adipose tissue ([1]; 60 min p.i.): 134.5 | Ratio Bone/Adrenal gland ([1]; 60 min p.i.): 109.6 | Ratio Bone/Blood ([1]; 60 min p.i.): 135.6 | Ratio Bone/Brain ([1]; 60 min p.i.): 613.4 | Ratio Bone/Harderian gland ([1]; 60 min p.i.): 118.8 | Ratio Bone/Heart ([1]; 60 min p.i.): 210.1 | Ratio Bone/Kidneys ([1]; 60 min p.i.): 14.0 | Ratio Bone/Liver ([1]; 60 min p.i.): 127.5 | Ratio Bone/Lung ([1]; 60 min p.i.): 69.1 | Ratio Bone/Muscle ([1]; 60 min p.i.): 251.7 | Ratio Bone/Pancreas ([1]; 60 min p.i.): 136.4 | Ratio Bone/Spleen ([1]; 60 min p.i.): 68.2 | Ratio Bone/Testes ([1]; 60 min p.i.): 179.1 | Ratio Bone/Thymus ([1]; 60 min p.i.): 58.6 | Biodistribution of radioactivity, Adipose tissue [1, 4]: 0.04 SUV | Biodistribution of radioactivity, Adrenal gland [1, 4]: 0.04 SUV | Biodistribution of radioactivity, Blood [1, 4]: 0.04 ± 0.01 SUV and 0.04 SUV | Biodistribution of radioactivity, Brain [1, 4]: 0.01 SUV | Biodistribution of radioactivity, Femur [1, 4]: 4.84 ± 0.44 SUV and 4.84 SUV | Biodistribution of radioactivity, Harderian gland [1, 4]: 0.04 SUV | Biodistribution of radioactivity, Heart [1, 4]: 0.02 SUV | Biodistribution of radioactivity, Kidneys [1, 4]: 0.35 SUV | Biodistribution of radioactivity, Liver [1, 4]: 0.04 SUV | Biodistribution of radioactivity, Lung [1, 4]: 0.07 SUV | Biodistribution of radioactivity, Muscle [1, 4]: 0.02 SUV | Biodistribution of radioactivity, Pancreas [1, 4]: 0.04 SUV | Biodistribution of radioactivity, Spleen [1, 4]: 0.07 SUV | Biodistribution of radioactivity, Testes [1, 4]: 0.03 SUV | Biodistribution of radioactivity, Thymus [1, 4]: 0.08 SUV | Ratio Bone/Adipose tissue ([1]; 8 days p.i.): 1158 | Ratio Bone/Adrenal gland ([1]; 8 days p.i.): 547 | Ratio Bone/Blood ([1]; 8 days p.i.): 6703 | Ratio Bone/Brain ([1]; 8 days p.i.): 1405 | Ratio Bone/Harderian gland ([1]; 8 days p.i.): 48 | Ratio Bone/Heart ([1]; 8 days p.i.): 885 | Ratio Bone/Kidneys ([1]; 8 days p.i.): 66 | Ratio Bone/Liver ([1]; 8 days p.i.): 203 | Ratio Bone/Lung ([1]; 8 days p.i.): 634 | Ratio Bone/Muscle ([1]; 8 days p.i.): 37 | Ratio Bone/Pancreas ([1]; 8 days p.i.): 851 | Ratio Bone/Spleen ([1]; 8 days p.i.): 257 | Ratio Bone/Testes ([1]; 8 days p.i.): 1136 | Ratio Bone/Thymus ([1]; 8 days p.i.): 787 | Biodistribution of radioactivity, Adipose tissue [1, 5]: 0.004 SUV | Biodistribution of radioactivity, Adrenal gland [1, 5]: 0.009 SUV | Biodistribution of radioactivity, Blood [1, 5]: 0.001 SUV | Biodistribution of radioactivity, Brain [1, 5]: 0.004 SUV | Biodistribution of radioactivity, Femur [1, 5]: 5.039 SUV | Biodistribution of radioactivity, Harderian gland [1, 5]: 0.105 SUV | Biodistribution of radioactivity, Heart [1, 5]: 0.006 SUV | Biodistribution of radioactivity, Kidneys [1, 5]: 0.076 SUV | Biodistribution of radioactivity, Liver [1, 5]: 0.025 SUV | Biodistribution of radioactivity, Lung [1, 5]: 0.008 SUV | Biodistribution of radioactivity, Muscle [1, 5]: 0.136 SUV | Biodistribution of radioactivity, Pancreas [1, 5]: 0.006 SUV | Biodistribution of radioactivity, Spleen [1, 5]: 0.020 SUV | Biodistribution of radioactivity, Testes [1, 5]: 0.004 SUV | Biodistribution of radioactivity, Thymus [1, 5]: 0.006 SUV | Total skeletal retention ([1]; 8 days p.i., calculated from femur activity concentration and total skeleton weight): constant over 8 days | Total skeleton retention ([1]; after 60 min, calculated from femur activity concentration and total skeleton weight): 46.7 ± 5.3 %ID | Blood half-life of the slow component (t1/2(β)) ([2]; arterial blood, single intravenous injection): 23.3 min | Metabolization in blood samples (radio-HPLC and TLC) ([2]; within a period of 120 min): no evidence of any metabolization
